# Where two headings read alike, the source gives them in different places.
# How the values were obtained:
# RON = RON (Homo sapiens, UniProt Q04912); test: Kinase assay RON; assay type: biochemical
# Experimental: (§1) Serial dilutions in DMSO were prepared. PLK1 was serially diluted 5-fold from 10 μM, yielding concentrations from 10000 nM to 0.00512 nM. Other targets were serially diluted 3-fold from 10 μM, yielding concentrations from 10000 nM to 0.5 nM. We have used two kinase assays: HTRF assay and ADG-Glo assay.
# (§2) For HTRF Assay, 2× ATP/substrate solution and 2× kinase solution were prepared in kinase reaction buffer. Using an Echo 655, 50 nL of each diluted compound was transferred to a 384-well detection plate. The plate was centrifuged at 1000 rpm for 1 minute. 2.5 μL of 2× kinase solution was added to each well. The plate was incubated at 25°C for 10 minutes. 2.5 μL of 2× ATP/substrate solution was added to each well. The plate was centrifuged at 1000 rpm for 1 minute. The plate was incubated at 25°C for 40 minutes. 2× XL665 and antibody detection reagent were prepared in detection buffer. 5 μL of the prepared kinase detection reagent was added to each well. The plate was centrifuged at 1000 rpm for 1 minute. The plate was incubated at 25°C for 1 hour. Fluorescence signals at 620 nm (Cryptate) and 665 nm (XL665) were measured using a multifunction plate reader.
# (§3) For ADP-Glo Assay, 2× ATP/substrate solution and 2× kinase solution were prepared in kinase reaction buffer. […] Luminescence signals were measured using a multifunction plate reader.
# DRAK1 = DRAK1 (Homo sapiens, UniProt Q9UEE5); test: Kinase assay DRAK1; assay type: biochemical
# Experimental: as §1, §2, §3
# CK1ϵ = CK1ϵ (Homo sapiens, UniProt P49674); test: Kinase assay CK1ϵ; assay type: biochemical
# Experimental: as §1, §2, §3
# PSN1 = test: Cell viability (CellTiter-Glo, 72 h), PSN1; assay type: cell-based, Human; conditions: PSN1, 72 hours; for IC50: Homo sapiens; for Bottom: dose-response curve bottom; for Top: dose-response curve top
# Experimental: Human pancreatic cancer cell lines (PSN1, PANC-1, Panc 04.03, MIA PaCa-2, BxPC-3, and Capan-1) were cultured in their respective culture media. PSN1 cell lines were maintained in RPMI 1640 + 10%FBS. MIA PaCa-2 cells were cultured in DMEM+10%FBS+5% horse serum. Panc 04.03 cells were grown in RPMI 1640 + 15%FBS+10μg/mL Insulin. PANC-1 cells were maintained in DMEM+10%FBS. BxPC-3 cells were cultured in RPMI 1640 + 10%FBS. Capan-1 cells were grown in IMDM+20%FBS. All cells were incubated at 37°C in a humidified atmosphere containing 5% CO2.
# For assays, cells in the logarithmic growth phase were harvested, seeded to different concentrations at 2,000-6,000 cells/well in 96-well plates. Following overnight incubation, test compounds were added at various concentrations and incubated for 72 hours. Cell viability was assessed by the ATP concentration using the CellTiter-Glo reagent (Promega, Madison, WI 53711 USA), and luminescence values were recorded by a Multilabel Reader (PerkinElmer, Waltham, MA, USA).
# DYRK2 = DYRK2 (Homo sapiens, UniProt Q92630); test: Kinase assay DYRK2; assay type: biochemical
# Experimental: as §1, §2, §3
# TSSK1 = TSSK1 (Homo sapiens, UniProt Q9BXA7); test: Kinase assay TSSK1; assay type: biochemical
# Experimental: as §1, §2, §3
# PSN-1 CDX model = test: PSN-1 CDX model, tumor growth inhibition after 4-day dosing; assay type: in vivo, M-NSG mice; conditions: for TGI / Tumor volume Day 4: 4-day dosing; for Tumor volume Day 0: baseline
# Experimental: For in vivo PK/PD studies, a PSN1 tumor model was established in female M-NSG (NOD.Cg-Prkdc^scidIl2rg^em1Smoc ) mice, which are severely immunodeficient mice lacking the interleukin 2 receptor gamma chain on a NOD.Cg-Prkdc^scid background, at Shanghai Model Organisms (Shanghai, China). Briefly, 5 × 10^6 PSN1 cells were inoculated subcutaneously into each M-NSG mouse. Once the tumors reached approximately 500 mm³, compounds were administered orally at various dosages. For PK studies, blood samples were collected at 0, 0.25, 0.5, 1, 2, 6, and 24 hours post-dose. The sera from blood were then obtained and stored at -70°C. For PD studies, tumors were harvested 2 hours after dosing and stored at -70°C.The serum and tumor samples were then transported to PRECEDO (Hefei, Anhui, China) for further PK/PD studies.
# TGI was calculated as follows.
# DYRK3 = DYRK3 (Homo sapiens, UniProt O43781); test: Kinase assay DYRK3; assay type: biochemical
# Experimental: as §1, §2, §3
# [1] = Caco-2 permeability assay; assay type: in vitro ADME; conditions: for Permeability classification: Caco-2, by comparing Propranolol, Digoxin, Prazosin; for recovery at 2 h, 5 μM / Papp A→B at 2 h, 5 μM / Papp B→A at 2 h, 5 μM: human; for Papp A→B at 2 h, 5 μM / Papp B→A at 2 h, 5 μM: Caco-2, 5 μM
# Experimental: Caco-2 cells were cultured in 10% FBS DMEM for 14-21 days before assays. […] HBSS was added to the opposite chamber. After 2 hours incubation at 37°C, samples were analyzed by LC-MS/MS. Fluorescein leakage was tested by adding 100 μM fluorescein to the upper chamber and measuring fluorescence after 30 minutes.
# CLK2 = CLK2 (Homo sapiens, UniProt P49760); test: Kinase assay CLK2; assay type: biochemical
# Experimental: as §1, §2, §3
# CK1α = CK1α (Homo sapiens, UniProt P48729); test: Kinase assay CK1α; assay type: biochemical
# Experimental: as §1, §2, §3
# Sprague-Dawley rats = test: Sprague-Dawley rat repeated administration toxicity study; conditions: for Death / survival after 9-day dosing: Sprague-Dawley rats, oral 15 mg/kg once a day, n=3; for Rats survived at day 14: female, Sprague-Dawley, po, 14 days
# Experimental: Rat toxicity was studied at JOINN Laboratories (Suzhou, Jiangsu, China). […] […] […] Using 2 mL sterile syringes and gavage tubes, animals were dosed based on their most recent body weight, with volumes rounded to one decimal place. Test compounds were stirred continuously for at least 15 minutes before and during administration. The rats were dosed once a day for 14 days.
# [2] = Caco-2, Caco-2, A-B, read-out: Recovery A-B%
# [3] = Caco-2, Caco-2, B-A, read-out: Recovery B-A%
# Sequence of DRAK1 (Q9UEE5 whole entry, species assumed): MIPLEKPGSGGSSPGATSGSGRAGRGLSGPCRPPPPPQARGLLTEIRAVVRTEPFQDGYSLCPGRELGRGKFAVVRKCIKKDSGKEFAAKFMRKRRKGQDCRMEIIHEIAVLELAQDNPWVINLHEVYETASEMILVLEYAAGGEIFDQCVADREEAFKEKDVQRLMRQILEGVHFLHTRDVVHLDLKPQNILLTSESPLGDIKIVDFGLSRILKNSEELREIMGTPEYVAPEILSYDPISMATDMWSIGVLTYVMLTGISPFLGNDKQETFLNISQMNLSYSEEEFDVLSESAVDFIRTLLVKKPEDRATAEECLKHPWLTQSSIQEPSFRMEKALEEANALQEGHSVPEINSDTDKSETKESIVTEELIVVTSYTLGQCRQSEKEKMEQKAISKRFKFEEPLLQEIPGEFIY
# Sequence of CK1ϵ (P49674 whole entry): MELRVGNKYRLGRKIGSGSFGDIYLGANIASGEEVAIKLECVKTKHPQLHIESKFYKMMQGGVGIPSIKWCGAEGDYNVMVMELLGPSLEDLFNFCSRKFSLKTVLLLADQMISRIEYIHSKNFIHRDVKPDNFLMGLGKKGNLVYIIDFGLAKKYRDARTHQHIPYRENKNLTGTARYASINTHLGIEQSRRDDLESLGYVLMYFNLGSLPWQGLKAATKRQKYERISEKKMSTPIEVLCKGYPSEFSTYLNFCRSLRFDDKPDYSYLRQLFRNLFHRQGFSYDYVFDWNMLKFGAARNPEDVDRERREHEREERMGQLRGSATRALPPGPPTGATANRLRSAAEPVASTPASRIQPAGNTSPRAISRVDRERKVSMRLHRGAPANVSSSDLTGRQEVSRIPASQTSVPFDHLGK
# Sequence of CLK2 (P49760 whole entry, species assumed): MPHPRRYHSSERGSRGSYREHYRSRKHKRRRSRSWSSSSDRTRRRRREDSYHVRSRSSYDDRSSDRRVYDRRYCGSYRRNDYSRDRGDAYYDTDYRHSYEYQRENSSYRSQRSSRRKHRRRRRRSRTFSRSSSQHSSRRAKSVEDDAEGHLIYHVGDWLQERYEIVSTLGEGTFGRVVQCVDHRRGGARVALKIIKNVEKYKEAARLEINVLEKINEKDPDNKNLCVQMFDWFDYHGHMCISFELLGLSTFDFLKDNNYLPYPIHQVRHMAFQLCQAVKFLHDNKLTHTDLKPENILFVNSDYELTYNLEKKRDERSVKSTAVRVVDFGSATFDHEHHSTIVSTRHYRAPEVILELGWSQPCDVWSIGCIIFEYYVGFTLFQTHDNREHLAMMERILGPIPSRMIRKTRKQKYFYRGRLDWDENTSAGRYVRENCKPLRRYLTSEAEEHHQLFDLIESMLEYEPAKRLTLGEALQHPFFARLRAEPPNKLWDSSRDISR
# Sequence of CK1α (P48729 whole entry): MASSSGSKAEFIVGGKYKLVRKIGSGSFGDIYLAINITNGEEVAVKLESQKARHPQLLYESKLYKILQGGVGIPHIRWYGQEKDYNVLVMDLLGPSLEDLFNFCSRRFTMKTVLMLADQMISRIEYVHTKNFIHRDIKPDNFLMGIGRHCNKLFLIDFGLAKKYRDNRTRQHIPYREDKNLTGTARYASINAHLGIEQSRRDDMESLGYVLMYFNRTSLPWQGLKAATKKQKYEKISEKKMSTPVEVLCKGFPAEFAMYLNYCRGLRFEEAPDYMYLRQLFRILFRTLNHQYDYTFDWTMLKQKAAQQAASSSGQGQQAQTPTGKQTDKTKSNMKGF
# Sequence of DYRK3 (O43781 whole entry, species assumed): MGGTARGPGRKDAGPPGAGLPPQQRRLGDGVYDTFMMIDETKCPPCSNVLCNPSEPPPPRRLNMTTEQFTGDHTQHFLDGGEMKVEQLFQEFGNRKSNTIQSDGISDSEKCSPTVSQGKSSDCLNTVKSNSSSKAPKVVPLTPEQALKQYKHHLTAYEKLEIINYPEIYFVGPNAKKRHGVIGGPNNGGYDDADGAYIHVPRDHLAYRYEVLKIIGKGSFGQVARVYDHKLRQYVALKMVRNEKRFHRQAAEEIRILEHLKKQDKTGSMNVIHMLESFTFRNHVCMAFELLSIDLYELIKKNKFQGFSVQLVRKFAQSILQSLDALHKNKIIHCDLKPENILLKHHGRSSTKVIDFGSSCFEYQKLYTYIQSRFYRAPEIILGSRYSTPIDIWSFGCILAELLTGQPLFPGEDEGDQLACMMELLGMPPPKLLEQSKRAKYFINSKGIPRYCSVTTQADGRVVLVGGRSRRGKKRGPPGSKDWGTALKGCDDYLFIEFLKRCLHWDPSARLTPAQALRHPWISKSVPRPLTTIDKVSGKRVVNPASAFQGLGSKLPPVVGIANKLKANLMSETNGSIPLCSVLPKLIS
# Sequence of TSSK1 (Q9BXA7 whole entry, species assumed): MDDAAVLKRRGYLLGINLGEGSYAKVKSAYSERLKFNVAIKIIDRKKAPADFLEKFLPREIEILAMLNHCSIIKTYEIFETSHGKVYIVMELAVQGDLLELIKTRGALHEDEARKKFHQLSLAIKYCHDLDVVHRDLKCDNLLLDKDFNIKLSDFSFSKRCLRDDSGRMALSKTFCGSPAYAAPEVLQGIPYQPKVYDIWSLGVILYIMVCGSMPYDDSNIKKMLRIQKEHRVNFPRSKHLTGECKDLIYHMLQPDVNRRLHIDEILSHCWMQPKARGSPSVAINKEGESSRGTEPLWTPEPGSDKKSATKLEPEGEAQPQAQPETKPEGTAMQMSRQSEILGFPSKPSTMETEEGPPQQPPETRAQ
# Sequence of RON (Q04912 25-1400, species assumed): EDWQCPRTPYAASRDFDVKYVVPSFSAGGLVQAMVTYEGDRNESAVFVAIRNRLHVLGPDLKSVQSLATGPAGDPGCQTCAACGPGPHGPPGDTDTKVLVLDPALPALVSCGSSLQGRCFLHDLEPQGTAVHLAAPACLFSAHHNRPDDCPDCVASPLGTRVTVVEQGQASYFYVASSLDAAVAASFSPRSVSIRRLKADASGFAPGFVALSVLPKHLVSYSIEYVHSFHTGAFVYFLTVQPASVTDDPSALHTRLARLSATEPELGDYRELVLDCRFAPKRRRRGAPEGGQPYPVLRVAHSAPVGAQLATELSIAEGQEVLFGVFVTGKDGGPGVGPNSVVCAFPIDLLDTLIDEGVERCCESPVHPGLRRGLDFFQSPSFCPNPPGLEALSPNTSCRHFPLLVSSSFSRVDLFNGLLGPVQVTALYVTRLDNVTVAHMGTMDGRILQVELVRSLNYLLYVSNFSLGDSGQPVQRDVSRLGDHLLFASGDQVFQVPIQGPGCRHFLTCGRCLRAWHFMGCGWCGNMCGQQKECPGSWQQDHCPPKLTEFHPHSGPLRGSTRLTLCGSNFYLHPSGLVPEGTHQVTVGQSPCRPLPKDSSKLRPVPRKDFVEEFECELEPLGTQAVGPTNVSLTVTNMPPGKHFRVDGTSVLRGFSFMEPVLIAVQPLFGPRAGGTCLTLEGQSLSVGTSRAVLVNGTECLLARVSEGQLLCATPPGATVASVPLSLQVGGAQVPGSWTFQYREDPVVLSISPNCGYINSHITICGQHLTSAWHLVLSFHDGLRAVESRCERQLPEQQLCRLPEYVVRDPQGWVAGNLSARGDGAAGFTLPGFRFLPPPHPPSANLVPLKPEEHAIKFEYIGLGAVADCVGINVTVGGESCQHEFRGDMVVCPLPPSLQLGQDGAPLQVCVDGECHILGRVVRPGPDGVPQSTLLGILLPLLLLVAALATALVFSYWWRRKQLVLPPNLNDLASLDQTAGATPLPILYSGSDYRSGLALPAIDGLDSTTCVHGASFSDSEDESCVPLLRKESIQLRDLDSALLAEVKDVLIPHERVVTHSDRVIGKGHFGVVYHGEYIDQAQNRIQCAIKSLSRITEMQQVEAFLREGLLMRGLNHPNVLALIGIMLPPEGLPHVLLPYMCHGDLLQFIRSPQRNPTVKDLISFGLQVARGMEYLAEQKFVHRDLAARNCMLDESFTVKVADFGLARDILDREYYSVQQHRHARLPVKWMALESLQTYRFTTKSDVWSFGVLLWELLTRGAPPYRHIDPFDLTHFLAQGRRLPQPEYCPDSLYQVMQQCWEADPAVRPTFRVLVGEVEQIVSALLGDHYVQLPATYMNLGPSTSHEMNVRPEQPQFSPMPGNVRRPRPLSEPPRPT
# Sequence of DYRK2 (Q92630 whole entry): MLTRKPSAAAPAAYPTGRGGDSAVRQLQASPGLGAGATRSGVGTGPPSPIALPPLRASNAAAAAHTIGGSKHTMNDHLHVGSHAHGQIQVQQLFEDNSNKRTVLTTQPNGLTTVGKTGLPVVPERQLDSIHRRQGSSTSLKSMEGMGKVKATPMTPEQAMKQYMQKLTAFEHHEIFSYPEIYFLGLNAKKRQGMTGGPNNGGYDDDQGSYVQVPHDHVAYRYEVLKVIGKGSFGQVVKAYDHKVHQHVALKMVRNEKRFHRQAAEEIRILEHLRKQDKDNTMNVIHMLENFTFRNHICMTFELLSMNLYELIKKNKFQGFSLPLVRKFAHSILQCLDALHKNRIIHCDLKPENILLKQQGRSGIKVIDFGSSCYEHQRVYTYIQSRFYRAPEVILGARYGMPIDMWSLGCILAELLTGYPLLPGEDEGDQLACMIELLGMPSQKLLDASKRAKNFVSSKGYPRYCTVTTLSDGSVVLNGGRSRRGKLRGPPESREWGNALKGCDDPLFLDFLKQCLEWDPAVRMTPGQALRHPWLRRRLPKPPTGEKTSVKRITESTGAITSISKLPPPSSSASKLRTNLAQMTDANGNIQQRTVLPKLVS
SMILES,IC50 (RON) [nM],IC50 (DRAK1) [nM],IC50 (CK1ϵ) [nM],IC50 (PSN1) [nM],Bottom (PSN1),Top (PSN1),IC50 (DYRK2) [nM],IC50 (TSSK1) [nM],TGI (PSN-1 CDX model; 15 mg/kg) [%],Tumor volume Day 4 (PSN-1 CDX model; 15 mg/kg) [mm^3],Tumor volume Day 0 (PSN-1 CDX model; 15 mg/kg) [mm^3],TGI (PSN-1 CDX model; 30 mg/kg) [%],Tumor volume Day 4 (PSN-1 CDX model; 30 mg/kg) [mm^3],Tumor volume Day 0 (PSN-1 CDX model; 30 mg/kg) [mm^3],TGI (PSN-1 CDX model; 60 mg/kg) [%],Tumor volume Day 4 (PSN-1 CDX model; 60 mg/kg) [mm^3],Tumor volume Day 0 (PSN-1 CDX model; 60 mg/kg) [mm^3],IC50 (DYRK3) [nM],Permeability classification [1],"recovery at 2 h, 5 μM [1, 2] [%]",other results
CN1CCN(c2ccc(OC(F)(F)F)c(Nc3ncc4c(n3)-c3c(c(C(N)=O)nn3CCO)CC4)c2)CC1 [NMS-P937],1090,44.6,156,48.9,2.3,85.9,1150,77.8,51.3,166.43 ± 5.79,119.66 ± 1.67,68.1,149.94 ± 4.21,119.38 ± 2.09,81.2,137.49 ± 5.16,119.42 ± 2.14,114,medium permeability,71.6,"recovery at 2 h, 5 μM [1, 3]: 93.3%; Papp A→B at 2 h, 5 μM [1]: 6.1 ×10⁻⁶ cm/s; Papp B→A at 2 h, 5 μM [1]: 34.2 ×10⁻⁶ cm/s; IC50 (CLK2): 37 nM; IC50 (CK1α): 184 nM; Death / survival after 9-day dosing (Sprague-Dawley rats; 15 mg/kg): 1 out of 3 rats treated with NMS-P937 died and Death of 1/3 rat; Rats survived at day 14 (Sprague-Dawley rats; rat, in vivo, 15 mg/kg): 2/3"
[2H]C1([2H])N(C)C([2H])([2H])C([2H])([2H])N(c2ccc(OC(F)(F)F)c(Nc3ncc4c(n3)-c3c(c(C(N)=O)nn3CCO)CC4)c2)C1([2H])[2H] [PR00012],905,48.7,156,60.7,13.7,93.7,81.4,53.2,55.5,162.12 ± 4.11,119.44 ± 1.78,75.0,143.49 ± 5.64,119.48 ± 1.95,91.2,127.93 ± 1.60,119.48 ± 1.72,112,medium permeability,79.7,"recovery at 2 h, 5 μM [1, 3]: 89.7%; Papp A→B at 2 h, 5 μM [1]: 5.2 ×10⁻⁶ cm/s; Papp B→A at 2 h, 5 μM [1]: 34.7 ×10⁻⁶ cm/s; IC50 (CLK2): 24.8 nM; IC50 (CK1α): 182 nM; Death / survival after 9-day dosing (Sprague-Dawley rats): all three rats treated with PR00012 survived; Rats survived at day 14 (Sprague-Dawley rats; rat, in vivo, 15 mg/kg): 3/3; Tolerability (Sprague-Dawley rats; rat, in vivo, 10 mg/kg): the rats were still tolerable"

# From paper PMC11968394, “The effect of deuterated PLK1 inhibitor on its safety and efficacy in vivo” (Frontiers in Oncology, 2025)
